Measurements: patent publication US20250230151A1, “COMPOUNDS FOR CANCERS DRIVEN BY BRAF MUTATION” (THE BOARD OF TRUSTEES OF THE UNIVERSITY OF ILLINOIS, priority 2021, published 2025)
Read-outs that look alike come from different tables or passages of the source.

Tests used:
[1] = tested on: CHL-1 cells; experiment: 72-hour cell viability assay (Alamar Blue), CHL-1; format: cell-based; conditions: Homo sapiens, CHL-1, WT BRAF
Protocol: (§1) Cell Culture and reagents. All cell lines were grown in a 37° C., 5% CO2, humidified environment, in media containing 1% penicillin/streptomycin. Cell culture conditions are as follows: MDCK cells transfected with MDR1 (or ABCB1) were obtained from the Netherlands Cancer Institute (Amsterdam, The Netherlands) and maintained in DMEM with 10% fetal bovine serum (FBS, Gemini). Traditional cell lines A375, CHL-1, B16F10, and U118MG were grown in DMEM with 10% FBS, SK-MEL-28, U87 and T98G in EMEM with 10% FBS, AM-38 in EMEM with 20% HI-FBS (Gibco), HT29 in McCoy's 5A with 10% FBS, HCT116 in RPMI with 10% FBS. Compounds were dissolved in DMSO (1% final concentration, Sigma-Aldrich) for cell culture studies.
(§2) Cell viability assays. Cells were harvested, seeded in a 96-well plate and allowed to adhere overnight. Compound was added to each well in DMSO (1% final concentration). Cells were incubated for 72 hours before viability was assessed by the Alamar Blue Assay. Raptinal ([…]) was used as a dead control.

[2] = tested on: A375 cells; experiment: 72-hour cell viability assay (Alamar Blue), A375; format: cell-based, human; conditions: Homo sapiens, A-375; 72-hour incubation, Alamar Blue, V600E BRAF
Protocol: as §1, §2

[3] = tested on: HT29 cells; experiment: 72-hour cell viability assay (Alamar Blue), HT29; format: cell-based; conditions: Homo sapiens, HT-29, V600E BRAF, colon
Protocol: as §1, §2

[4] = tested on: HCT116 cells; experiment: 72-hour cell viability assay (Alamar Blue), HCT116; format: cell-based; conditions: Homo sapiens, HCT-116, WT BRAF
Protocol: as §1, §2

[5] = tested on: AM-38 cells; experiment: 72-hour cell viability assay (Alamar Blue), AM-38; format: cell-based; conditions: Homo sapiens, AM-38, V600E BRAF, glioma
Protocol: as §1, §2

[6] = biological target: T1, P-gp (Homo sapiens, UniProt P08183); experiment: MDR1-MDCK P-gp transwell bidirectional transport assay; format: in vitro ADME; conditions: dog, MDCK-MDR1, MDR1-MDCK, 10 μM, 90 min
T1 construct: host or cells: MDCK (MDR1-MDCK)
T1 sequence (P08183 whole entry): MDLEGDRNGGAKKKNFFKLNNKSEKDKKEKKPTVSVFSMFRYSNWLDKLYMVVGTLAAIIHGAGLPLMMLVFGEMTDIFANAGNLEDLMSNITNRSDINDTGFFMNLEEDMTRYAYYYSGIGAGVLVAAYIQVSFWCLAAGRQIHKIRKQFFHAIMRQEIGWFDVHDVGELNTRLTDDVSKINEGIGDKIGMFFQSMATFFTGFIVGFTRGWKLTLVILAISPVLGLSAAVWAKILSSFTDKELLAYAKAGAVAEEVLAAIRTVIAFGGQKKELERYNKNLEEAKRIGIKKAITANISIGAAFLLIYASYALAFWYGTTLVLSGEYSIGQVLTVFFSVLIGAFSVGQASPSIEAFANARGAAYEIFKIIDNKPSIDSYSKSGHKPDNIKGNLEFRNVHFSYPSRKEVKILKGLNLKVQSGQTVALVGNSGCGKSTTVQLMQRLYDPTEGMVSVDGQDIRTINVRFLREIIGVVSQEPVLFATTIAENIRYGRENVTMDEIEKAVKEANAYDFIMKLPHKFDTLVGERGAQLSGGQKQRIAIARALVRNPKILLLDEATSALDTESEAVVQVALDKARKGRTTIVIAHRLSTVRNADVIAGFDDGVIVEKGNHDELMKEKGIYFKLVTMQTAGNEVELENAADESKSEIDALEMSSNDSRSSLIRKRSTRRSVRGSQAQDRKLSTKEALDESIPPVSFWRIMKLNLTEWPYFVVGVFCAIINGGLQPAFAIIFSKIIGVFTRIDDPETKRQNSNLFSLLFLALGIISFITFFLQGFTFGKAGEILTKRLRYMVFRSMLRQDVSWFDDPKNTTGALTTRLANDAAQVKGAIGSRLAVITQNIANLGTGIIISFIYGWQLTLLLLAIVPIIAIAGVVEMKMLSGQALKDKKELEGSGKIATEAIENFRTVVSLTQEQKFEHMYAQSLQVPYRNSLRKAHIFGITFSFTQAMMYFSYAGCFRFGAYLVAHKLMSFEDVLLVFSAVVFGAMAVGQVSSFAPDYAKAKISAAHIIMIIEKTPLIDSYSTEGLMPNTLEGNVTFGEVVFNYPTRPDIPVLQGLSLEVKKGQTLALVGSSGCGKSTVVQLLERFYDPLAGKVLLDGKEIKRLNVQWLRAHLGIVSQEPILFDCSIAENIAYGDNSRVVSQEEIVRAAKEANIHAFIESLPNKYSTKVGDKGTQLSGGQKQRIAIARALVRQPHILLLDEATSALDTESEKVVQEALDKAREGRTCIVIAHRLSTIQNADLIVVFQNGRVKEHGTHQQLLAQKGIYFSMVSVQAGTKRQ
Protocol: A novel compound collection composed of complex and diverse compounds derived from natural products, termed “Complexity-to-Diversity Collection” was employed. […] The CtD compounds were evaluated by the efflux pump and their permeability using the P-gp transwell assay using adapted and optimized known protocols. Compound transport across epithelial cells overexpressing P-gp from basolateral-to-apical and apical-to-basolateral directions were quantified to calculate permeability and efflux ratio.
P-gp transwell bidirectional transport assays. Unless noted otherwise, the transport assay was performed in triplicate in batches of 16 or 24 test compounds, with each batch containing quinidine as a substrate control and propranolol as a non-substrate control. MDR1-MDCK cells were plated at a density of 300,000 cells/cm^2 onto 96-well Falcon™ Multiwell Insert System with 1 µm pore polycarbonate filters with angled-bottom receiver plates (Coming) and were fed with the cell growth medium on day 2.
The donor solution was prepared by adding 1 mM DMSO stocks of compounds to make the final concentration […], and the receiver solution was prepared with equivalent volume of DMSO to make 1% DMSO in final assay chamber volumes.
After 80-96 hours since seeding, the growth media on both sides was aspirated. To the transwell plate (apical side), 50 μL of receiver and donor solutions prepared on a 96-well plate were added, and it was placed on top of a separate angled-bottom 96-well plate (basolateral side) containing 260 μL of receiver and donor solutions.
Following 90 minutes of incubation at 37° C. with shaking at 90 rpm, 20 μL aliquot of samples were taken from both the donor and receiver chambers, and the apical and basolateral sides. Aliquots of 4 test compounds were pooled for each category: apical-donor, apical-receiver, basolateral-donor, basolateral-receiver. To measure CO and mass balance, initial donor samples from both apical and basolateral side were set aside from the assay plate. Acetonitrile twice the volume of pooled samples was added and mixed thoroughly, and precipitated proteins were removed by centrifugation at 20,000 r.c.f for 10 minutes.
To ascertain the MDCK monolayer integrity, the solution on apical side contained 100 µM Lucifer Yellow (Millipore-Sigma). After 90 minutes of compound transport, Lucifer Yellow concentration in the basal well was measured using SpectraMax M3 (Molecular Devices) set to an excitation wavelength of 430 nm and an emission wavelength of 540 nm.
Samples were analyzed with the 5500 QTRAP LC/MS/MS system (AB Sciex) with a 1200 series HPLC system (Agilent Technologies) including a degasser, an autosampler, and a binary pump. The liquid chromatography separation was performed on an Agilent SB-Aq column (4.6×50 mm, 5 μm) (Agilent Technologies) with mobile phase A (0.1% formic acid in water) and mobile phase B (0.1% formic acid in acetonitrile). The flow rate was 0.3 ml min^−1. The linear gradient was optimized for each compound. The autosampler was set at 5° C. The injection volume was 15 μL. Mass spectra were acquired with both positive electrospray ionization at the ion spray voltage of 5,500 V and negative electrospray ionization at the ion spray voltage of −4,500 V. The source temperature was 450° C. The curtain gas, ion source gas 1, and ion source gas 2 were 33, 50 and 65, respectively. Multiple reaction monitoring was used to quantify metabolites.
Efflux data calculations.

[7] = tested on: B16F10 cells; experiment: 72-hour cell viability assay (Alamar Blue), B16F10; format: cell-based; conditions: Mus musculus, B16-F10, WT BRAF, read-out: B16F10 IC50
Protocol: as §1, §2

[8] = tested on: U87 cells; experiment: 72-hour cell viability assay (Alamar Blue), U87; format: cell-based; conditions: Homo sapiens, WT BRAF
Protocol: as §1, §2

[9] = tested on: U118MG cells; experiment: 72-hour cell viability assay (Alamar Blue), U118MG; format: cell-based; conditions: Homo sapiens, U-118-MG, WT BRAF
Protocol: as §1, §2

[10] = tested on: T98G cells; experiment: 72-hour cell viability assay (Alamar Blue), T98G; format: cell-based; conditions: Homo sapiens, T98G, WT BRAF, read-out: T98G IC50
Protocol: as §1, §2

Question: CCCS(=O)(=O)Nc1ccc(F)c(C(=O)c2c[nH]c3ncc(-c4ccc(Cl)cc4)cc23)c1F [Vemurafenib, reference compound] was tested. Which IC50 ([1]; melanoma, read-out: CHL-1 (WT) IC50) did it give?
Answer: > 10 µM

Question: What about the IC50 ([1]; read-out: CHL-1 IC50) of the same molecule?
Answer: > 10 µM

Question: And the IC50 [2]?
Answer: 0.331 ± 0.093 µM

Question: What about the IC50 [3] of the same molecule?
Answer: 0.24 ± 0.0617 µM

Question: What about the IC50 ([4]; colon, read-out: HCT116 (WT) IC50) of the same molecule?
Answer: 27 µM

Question: What about the IC50 ([4]; read-out: HCT116 IC50) of the same molecule?
Answer: > 10 µM

Question: What about the IC50 [5] of the same molecule?
Answer: 0.344 ± 0.0593 µM

Question: And the Papp A→B at 90 min, 10 µM [6]?
Answer: 0.667 ± 0.11 ×10⁻⁶ cm/s

Question: And the Papp B→A at 90 min, 10 µM [6]?
Answer: 3.81 ± 0.063 ×10⁻⁶ cm/s

Question: And the efflux ratio at 90 min, 10 µM ([6]; read-out: ER (efflux ratio) (converted))?
Answer: 5.92 ± 0.77

Question: And the IC50 [7]?
Answer: > 10 µM

Question: And the IC50 ([8]; U-87 MG, read-out: U87 IC50)?
Answer: > 10 µM

Question: And the IC50 ([8]; glioma, read-out: U87 (WT) IC50)?
Answer: > 10 µM

Question: And the IC50 ([9]; glioma, read-out: U118MG (WT) IC50)?
Answer: > 10 µM

Question: What about the IC50 ([9]; read-out: U118MG IC50) of the same molecule?
Answer: > 10 µM

Question: And the IC50 [10]?
Answer: > 10 µM
